Values of other authors as cited in patent publication US9789076B2, “Bolus dose of hydroxycitric acid with glycerol” (GLYKON TECHNOLOGIES GROUP, LLC, priority 2014, dated 2017).
Like-named read-outs stand apart in the source and are kept apart here.

How the values were obtained:
[1] = rats, oral, 30 days
[2] = 0.33 mmoles/kg twice daily (total 0.66 mmoles/kg)

| SMILES | inhibition of acetate or ethanol incorporation into fatty acid synthesis (fatty acid synthesis) | food consumption, percent of controls [1, 2] [%] | weight gain, percent of controls [1, 2] [%] | food consumption, percent of controls ([1]; 2.63 mmoles/kg as bolus) [%] | weight gain, percent of controls ([1]; 2.63 mmoles/kg as bolus) [%] | lowest effect dosage ([1]; given twice daily) [mmoles/kg body weight] |
| --- | --- | --- | --- | --- | --- | --- |
| O=C(O)CC(O)(C(=O)O)C(O)C(=O)O (single isomer, unassigned; (-)) [hydroxycitrate, (−)-Hydroxycitric acid] | no hydroxycitrate inhibition | – | – | – | – | – |
| O=C([O-])CC(O)(C(=O)[O-])C(O)C(=O)[O-].[Na+].[Na+].[Na+] (stereo not drawn) [trisodium hydroxycitrate] | – | 87 | 62 | 83 | 64 | 0.33 |
